Read-outs that look alike come from different tables or passages of the source.
Molecular target: T1, MMP-14 (Homo sapiens, UniProt P50281)
T1 construct: The catalytic domain enzyme was expressed in E. coli inclusion bodies, solubilized in urea; made in house
Assay: In vitro MMP inhibition, IC50 determination (fluorogenic substrate I)
Type: biochemical
Conditions: read-out: MMP-14 (IC-50)

Structure (SMILES)	IC50 (value in parenthesis)	IC50 (value in parentheses)
CCOCCCc1ccc(N2CCN(S(=O)(=O)C3(C(=O)NO)CCN(CCOC)CC3)CC2)cc1 [Example 179]	3.62 µM	–
COCCCc1ccc(N2CCN(S(=O)(=O)C3(C(=O)NO)CCN(CCOC)CC3)CC2)cc1 [Example 180]	5.56 µM	–
CCC(CC)Cc1ccc(N2CCN(S(=O)(=O)C3(C(=O)NO)CCN(CCOC)CC3)CC2)cc1 [Example 188]	> 10 µM	–
COCCN1CCC(C(=O)NO)(S(=O)(=O)N2CCN(c3ccc(CCC4CCCC4)cc3)CC2)CC1 [Example 182]	7.85 µM	–
CCc1cnc(N2CCN(S(=O)(=O)C3(C(=O)NO)CCN(CCOC)CC3)CC2)nc1 [Example 187]	> 10 µM	–
COCCN1CCC(C(=O)NO)(S(=O)(=O)N2CCN(c3ccc(CC4CCC4)cc3)CC2)CC1 [Example 183]	2.04 µM	–
COCCN1CCC(C(=O)NO)(S(=O)(=O)N2CCN(c3ccc(CC4CCCCC4)cc3)CC2)CC1 [Example 181]	> 10 µM	–
CCCCOc1ccc(N2CCN(S(=O)(=O)C3(C(=O)NO)CCN(C(=O)CCC)CC3)CC2)cc1 [Example 290]	–	3.8 µM
CCOc1ccc(N2CCN(S(=O)(=O)C3(C(=O)NO)CCN(CCOC)CC3)CC2)cc1F [Example 184]	2.4 µM	–
CCCOc1ccc(N2CCN(S(=O)(=O)C3(C(=O)NO)CCN(CCOC)CC3)CC2)cc1F [Example 185]	> 10 µM	–
COCCN1CCC(C(=O)NO)(S(=O)(=O)N2CCN(c3ccc(C#N)cc3)CC2)CC1 [Example 186]	7.48 µM	–

— patent US20050209278A1, “Piperidinyl- and piperazinyl-sulfonylmethyl hydroxamic acids and their use as protease inhibitors” (priority 2002, published 2005)
